Article PMC5974751, “NKp44-Derived Peptide Binds Proliferating Cell Nuclear Antigen and Mediates Tumor Cell Death” (Frontiers in Immunology, 2018)
Ends that are not written are not given here. * marks the point of attachment. Biotin = O=C1N[C@H]2[C@H](CS[C@H]2CCCCC(=O)*)N1

Tests used:
4T1 cells = test: Flow cytometry based cell death assay (PI), 4T1; design: species or system murine; conditions: 4T1, PI flow cytometry, 0–8 µM, 24 h
Description: (§1) Peptides were diluted before the incubation with the target cells with free DMEM culture medium to 0–16 µM according to peptide molecular weight. For adding the peptides, 0.5 ml was removed from each well, and 0.5 ml of diluted peptides was added to a final volume of 1 ml, 5% FCS, duplicates. Peptides were incubated with target cells for 24 h, and then the medium was collected, adherent cells were removed with trypsin–EDTA (0.5 ml, 3 min, BI: 03-052-1B), 1 ml of complete medium was added to each well, and the medium was collected (final volume 2.5 ml, on ice). For the cell death assay, samples were then centrifuged (1,300 rpm, 4°C, 5 min), the medium was removed, fresh 1 ml 10% FCS was added, and then 1 µl of 1 mg/ml PI was added to each sample and incubated (15 min, on ice) with the target cells. Before analyzing the samples, samples were centrifuged (1,300 rpm, 4°C, 5 min), the medium was removed, and fresh 0.2 ml FCAS buffer (PBS 1×, 20% FCS, 0.5% NaN3) was added. Samples were then read and analyzed using BD FACSCanto™ II and FlowJo®. APIM peptide and camptothecin (CPT) were used as positive controls ([38], [54]–[56]). Specific cell death was calculated as following: Y = 100*((sample cell death − basal cell death)/(100 − basal cell death)). Basal cell death = % of PI positive cells following incubation in complete culture media.

[1] = system: pep8–PCNA interaction (recombinant PCNA); test: ELISA-based inhibition of biotin-pep8 binding to PCNA; design: species or system human; conditions: inhibitor 25 µg/ml 1 h, then biotin-pep8 5 µg/ml 1 h, room temperature, O.D. 650 nm
Description: To determine the ability of APIM-based peptide to suppress NKp44-pep8 interaction with PCNA, ELISA plates were coated with recombinant PCNA followed by PBS–skim milk added as described earlier. Plates were then incubated with 25 µg/ml of R11-NLS-pep8 (positive control), R11-NLS-pep8short (negative control), and APIM for 1 h at room temperature followed by addition of biotin-pep8 (5 µg/ml) without washing for 1 h at room temperature. Biotin-pep8 binding to PCNA was detected using streptavidin conjugated HRP (1 h at 1:500 dilution 100 μl/well). Following washing, TMB (100 μl/well DAKO, S1599) was added. O.D. was read at 650 nm (Thermo Electron Corporation Multiskan Spectrum).

MDA-MB-231 cells = test: Flow cytometry based cell death assay (PI), MDA-MB-231; design: species or system human; conditions: MDA-MB-231, PI flow cytometry, 0–8 µM, 24 h
Description: as §1

B16 cells = test: Flow cytometry based cell death assay (PI), B16; design: species or system murine; conditions: 0–8 µM, 24 h
Description: as §1

[2] = system: recombinant human PCNA (hPCNA); test: ELISA binding of biotinylated NKp44-derived peptides to plate-bound recombinant PCNA; conditions: biotinylated peptide, 0–7.24 µM (Figure 1A), streptavidin-HRP, TMB, O.D. 650 nm
Description: The pET-28 or pMAL-c2x vectors were used to produce soluble human PCNA (hPCNA) in Rosetta™ 2 (DE3) cells. Plasmids containing the mRNA sequence of PCNA or TL1A, APO-E3, HNF4 were transformed into Rosetta™ 2 cells via heat shock and grown on LB agar plates with kanamycin and chloramphenicol. A fresh colony of transformed bacteria was grown overnight in a 5 ml of LB with kanamycin and chloramphenicol an incubator shaker set to 37°C and at 250 rpm. The next day, bacteria cells were diluted 1:100 into a 500 ml of LB with kanamycin and chloramphenicol (to discard dead cells) and grown to an optical density (O.D.) of 0.6–0.8 (λ = 650 nm). Isopropyl β-D-1-thiogalactopyranoside (0.5 mM) was added for the induction of the PCNA production, and cells were further incubated for 4 h at 26°C (hPCNA). Cells were then centrifuged and the pellet was resuspended with solution A (20 mM Tris–HCl pH 8.0, 0.5 M NaCl, 20 mM imidazole), sonicated six times (20 s with 40 s intervals) and sieved through […] (Sartorius Stedim Biotech) filter before loaded on a His-tag or Amylose resin beads. Purification of His-tagged proteins was done using a Gravity-flow Column with “HisPur™ Ni-NTA Resin” Bead kit (Thermo-Scientific) (binding capacity ≤ 60 mg of a 28 kDa 6xHis-tagged protein from a bacterial source per milliliter of settled resin) according to Kits Protocol. Purification of MBP-tagged proteins was done using the Amylose resin beads (Catalog # E8035S).
To determine the interaction between NKp44-derived peptides and PCNA, ELISA plates were coated overnight at 4°C with 2 µg/ml of the recombinant PCNA or TLA1 ([49]), APO-E3 ([50]), HNF4 ([4]), rhFc, rhNKp44-hFc ([12]), rhNKp46-hFc ([51]), and PBS 1× (negative controls). Blocking buffer (PBS + 2.5% skim milk) was applied for 2 h at room temperature, after that the plates were incubated with 0–8 µM of biotinylated NKp44-derived peptides or PBS 1× (background control) for 2 h at room temperature. NKp44-derived peptides binding to PCNA was detected using horseradish peroxidase (HRP)-conjugated to streptavidin (1 h at 1:500 dilution). Following washing, TMB (DAKO, S1599) was added. O.D. was read at 650 nm (Thermo Electron Corporation Multiskan Spectrum). Between each step, wells were washed three times with PBS containing 0.05% Tween 20 (PBST).

[3] = system: A549 lung carcinoma cells; test: PrestoBlue cell viability, A549; type: cell-based, human; conditions: 24 h, peptides 0–8 µM, selenite 25 µM
Description: (§2) Target cells (2.5 × 10^4 cells/well of a 48-well plate, Corning) were seeded and incubated in 37°C, 5% CO2 for 24 h in 0.5 ml of fresh complete DMEM (10% FBS) culture medium. According to molecular weight peptides were diluted from 8 to 2 µM with 5% FBS containing DMEM culture medium just before the incubation with the target cells. Medium was removed from each well, and 250 µl of diluted peptides was added and incubated for another 24 h at 37°C, 5% CO2. PrestoBlue (A13261, Invitrogen™) solution was prepared by diluting the dye 10-fold with complete DMEM. Medium was discarded from each well, and 250 µl of PrestoBlue solution was added to each well, shake gently and incubated at 37°C for another 1 h. Emission at 560 nm was measured in Premium Quad4 Monochromators plate reader (Tecan). Normalization was done relative to the appropriate control (DMEM or DMSO) to calculate the percentage of viable cells in each group. Selenite (25 µM) was used as a positive control ([52], [53]).

[4] = system: 4T1 mammary carcinoma cells; test: PrestoBlue cell viability, 4T1; type: cell-based, murine; conditions: 4T1, PrestoBlue, 24 h; peptides 0–8 µM; selenite 25 µM
Description: as §2

B16 melanoma cells = test: PrestoBlue cell viability, B16; type: cell-based, murine; conditions: 24 h
Description: as §2

[5] = system: PANC-1 pancreas ductal adenocarcinoma cells; test: PrestoBlue cell viability, PANC-1; type: cell-based, human; conditions: PANC-1, PrestoBlue, 24 h
Description: as §2

[6] = system: HepG2 hepatocellular carcinoma cells; test: PrestoBlue cell viability, HepG2; type: cell-based, human; conditions: 24 h
Description: as §2

[7] = system: MDA-MB-231 breast adenocarcinoma cells; test: PrestoBlue cell viability, MDA-MB-231; type: cell-based, human; conditions: MDA-MB-231, PrestoBlue, 24 h
Description: as §2

[8] = biological target: T1, recombinant human PCNA (proliferating cell nuclear antigen) (human, UniProt P12004 1-261); test: ELISA; plates coated overnight at 4°C with 2 µg/ml recombinant protein; blocked with PBS + 2.5% skim milk; 0-8 µM biotinylated NKp44-derived peptides, 2 h at room temperature; streptavidin-HRP; conditions: both partners purified
T1 construct: proliferating cell nuclear antigen, human; PCNA coated on ELISA plates; also called hPCNA; recombinant PCNA; source: E. coli Rosetta 2 (DE3), purified (Ni-NTA or amylose resin); not shown: His tag or MBP (from the vectors pET-28 or pMAL-c2x)
T1 sequence (P12004 whole entry): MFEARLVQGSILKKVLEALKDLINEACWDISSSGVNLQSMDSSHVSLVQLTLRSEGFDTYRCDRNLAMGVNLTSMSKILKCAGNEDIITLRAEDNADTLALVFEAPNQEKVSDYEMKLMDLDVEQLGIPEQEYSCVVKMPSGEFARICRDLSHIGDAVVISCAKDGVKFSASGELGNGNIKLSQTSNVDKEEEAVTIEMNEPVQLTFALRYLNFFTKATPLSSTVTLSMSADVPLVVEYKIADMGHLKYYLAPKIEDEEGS

[9] = biological target: T2, MBP-fused recombinant human PCNA (human, UniProt P12004 1-261); test: SPR; ProteOn XPR36, GLC chip; peptides immobilised by EDC/S-NHS amine coupling; MBP-PCNA 0-250 nM as analyte at 25 µl/min; equilibrium analysis model; conditions: both partners purified
T2 construct: proliferating cell nuclear antigen, human; vector pMAL-c2x; Analyte of the SPR experiments; also called MBP-PCNA; hPCNA; source: E. coli Rosetta 2 (DE3), purified (amylose resin)
T2 sequence (P12004 whole entry, the tested form may be a part): as the sequence (P12004 whole entry) above

MDRWLVK-W-KKKRK-I-RRRRRRRRRRR [APIM, published PCNA-targeting peptide used as positive control, reference compound]
induction of cell death, in words (4T1 cells): strong induction of cell death | inhibition of pep8 binding to PCNA [1]: 7% | induction of cell death, in words (MDA-MB-231 cells): strong induction of cell death | induction of cell death, in words (B16 cells): strong induction of cell death

CC[C@@]1(O)C(=O)OCc2c1cc1n(c2=O)Cc2cc3ccccc3nc2-1 [CPT, camptothecin, reference compound]
induction of cell death, in words (4T1 cells): lower, but stable levels of cell death | induction of cell death, in words (MDA-MB-231 cells): lower, but stable levels of cell death | induction of cell death, in words (B16 cells): lower, but stable levels of cell death

VTSSKPRTVA [pep8short, short form of pep8]
binding to recombinant hPCNA [2]: does not bind PCNA | binding to recombinant hPCNA ([2]; listed as 10-mer shared core sequence of pep8 and pep10): did not bind PCNA

YPPTGSLYEKKGWCKEASAL [pep5, NKp44-derived peptide used as negative control]
binding to recombinant hPCNA [2]: negative binding

O=[Se](O)O [Selenite, reference compound]
effect on cell viability, in words [3]: significantly reduced cell viability | effect on cell viability, in words [4]: significantly reduced cell viability

RRRRRRRRRRR-I-KKKRK-W-VTSSKPRTVA [R11-NLS-pep8short, R11-NLS fused to pep8short, negative control]
induction of cell death, in words (4T1 cells): did not induce any cell death | inhibition of pep8 binding to PCNA [1]: 10% | effect on cell viability, in words (B16 melanoma cells): none to dull effect | effect on cell viability, in words [5]: none to dull effect | effect on cell viability, in words [6]: none to dull effect | effect on cell viability, in words [3]: did not show any effect on tumor cell viability | induction of cell death, in words (MDA-MB-231 cells): did not induce any cell death | induction of cell death, in words (B16 cells): did not induce any cell death | effect on cell viability, in words [7]: none to dull effect | effect on cell viability, in words [4]: did not affect 4T1 cell viability

B1: biotinylated NKp44-derived peptide #8 (peptide)
peptide: Biotin-EASALVCIRLVTSSKPRTVA
notes: NKp44 (NCR2), amino acids 57-76, with the natural SNP variant (rs9471577) valine at 75; also called pep8; NKp44-pep8; source: synthetic peptide (PEP screen, Sigma-Aldrich; selected peptides from GL Biochem)
binding result [8]: binds

B2: biotinylated NKp44-derived peptide #10 (peptide)
peptide: Biotin-VTSSKPRTVAWTSRFTIWAA
notes: NKp44 (NCR2), amino acids 67-86, with valine at 75 (SNP rs9471577); also called pep10; NKp44-pep10; source: synthetic peptide (PEP screen, Sigma-Aldrich; selected peptides from GL Biochem)
binding result [8]: binds

B3: NKp44-derived pep8 (immobilised for SPR) (peptide)
peptide: EASALVCIRLVTSSKPRTVA
notes: NKp44 (NCR2), amino acids 57-76, with the natural SNP variant (rs9471577) valine at 75; also called NKp44-pep8; source: synthetic peptide
Kd [9]: 490 nM

B4: R11-NLS-pep8 (peptide)
peptide: RRRRRRRRRRRIKKKRKWEASALVCIRLVTSSKPRTVA
modifications: not fully specified (residue 38, N-terminus); printed as RRRRRRRRRRR-I-KKKRK-W-EASALVCIRLVTSSKPRTVA
notes: cell-penetrating moiety: R11, I, NLS stretch KKKRK, W; NKp44 (NCR2), amino acids 57-76 (pep8), with valine at 75 (SNP rs9471577); also called CPP-pep8; source: synthetic peptide (GL Biochem, purity > 95%)
Kd [9]: 87 nM
